“And” between values parts separate entries of the source, which are not always exact repeats. Equal entries are not always repeated. “Also recorded” adds a separate entry of the source. Where two headings read alike, the source gives them in different places.
Columns and labels:
[1] = system: β-estradiol UGT activity; test: β-estradiol UGT activity in intestinal microsomes from PCN and TCDD treated Tg-UGT1c mice; format: in vivo, mouse; details: for Induction of β-estradiol glucuronidation: large intestine microsomes, Tg-UGT1c mice
Procedure: (§1) Microsomal Protein Isolation from Transgenic Mouse Tissues.
(§2) Reactions were terminated by the addition of 100 μl of methanol followed by centrifugation at top speed for 15 minutes. A 100 μl sample of the quenched reaction was spotted onto pre-adsorbent area of the TLC plate and develop in n-butanol/acetone/acetic acid/water (35:35:10:20) to achieve separation. ^14C-Labeled glucuronides were visualized with a STORM 820™ PhosphorImager (Molecular Dynamics/Amersham Biosciences). Silica gel in regions corresponding to the glucuronide bands were then scraped from the TLC plates, radioactivity measured by liquid scintillation counting, and specific catalytic activities were calculated in picomoles of glucuronide formed/mg of protein/min.
(§3) Values are the mean±S.E.M from triplicate experiments.

[2] = system: β-estradiol UGT activity; test: β-estradiol UGT activity in intestinal microsomes from PCN treated wild type mice; format: in vivo, mouse; details: WT mice
Procedure: as §1, §2, §3

[3] = system: human UGT1A6; details: for UGT1A6 protein regulation: small and large intestine
Description: (§4) Microsomal Protein Isolation from Transgenic Mouse Tissues. Using three animals per group, the liver, small and large intestinal tissues were collected from Tg-UGT1 and wild type mice. For the small and large intestine, the tissue was dissected open lengthwise and the luminal surface gently rinsed in 1.15% KCl before freezing on dry ice. Tissue samples from each treatment group were combined and frozen in liquid nitrogen in a porcelain mortar and pulverized under liquid nitrogen. A sample of the pulverized tissue was added to 5 volumes of 1.15% ice cold KCl and the tissue homogenized using a motorized glass-teflon homogenizer. The tissue homogenate was first centrifuged at 2,000×g for 10 min at 4° C. and the supernatant was collected. The supernatant was then centrifuged at 9,000×g for 10 min at 4° C. and this resulting supernatant centrifuged at 100,000×g for 60 min at 4° C. The pellet was resuspended in buffer (50 mM Tris-HCl pH 7.4, 10 mM MgCl2, 1 mM PMSF) and the protein concentration determined by the Bradford method.
(§5) Immunoblot Analysis. All Western blots were performed using NuPAGE Bis-Tris polyacrylamide gels as outlined by the supplier (Invitrogen, Carlsbad, Calif.). Protein was heated at 70° C. for 10 min in loading buffer and resolved in 4-12% Bis-Tris gels under denaturing conditions (50 mM MOPS, 50 mM Tris-base, pH 7.7, 0.1% SDS, 1 mM EDTA) prior to transferring the proteins to polyvinylidene difluoride membrane using a semidry transfer system (Norvex, England). The membrane was blocked with 5% nonfat dry milk in 10 mM Tris-HCl, pH7.4 containing 0.15 M NaCl and 0.05% Tween 20 (Tris-buffered saline) for 1 h at room temperature, followed by incubation with primary antibodies (mouse anti-human UGT1A1, UGT1A4 or UGT1A6) in Tris-buffered saline overnight at 4° C. Membranes were washed and exposed to horseradish peroxidase-conjugated secondary antibodies for 1 h at room temperature. Each membrane was again washed and the conjugated horseradish peroxidase was detected using the ECL plus Western blotting detection system (Amersham) and the proteins detected following exposure to X-ray film.
(§6) For both TCDD and PCN, the administration was by the intraperitoneal route, and each mouse was treated every 24 hours over a three day period. Tissues from three mice were then pooled and pulverized under liquid nitrogen, and samples used for microsomal preparation as well as for the isolation of total RNA.
(§7) Three Tg-UGT^1c or wild type (WT) mice were treated by intraperitoneal injection every 24 hours with either DMSO, TCDD (16 μg/kg) or PCN (10 mg/kg) for 3 days. After 72 hours, the small intestines from each treatment group were combined and the large intestines from each treatment group were combined and the tissues pulverized under liquid nitrogen. A sample of each tissue was then used to prepare microsomes or to isolate total RNA. FIG. 4A: Western blot analysis of small and large intestinal microsomal protein using UGT1A1-, UGT1A4- or UGT1A6 specific antibodies. Included as control is a sample of each protein generated from the expression of cDNAs in stably transfected HEK293 cells. FIG. 4B: RNA prepared from the same samples of tissue were used in RT-PCR studies and the isoform specific products identified in ethidium bromide stained agarose gels.
(§8) Induction of the UGT1 locus in liver by PCN and TCDD. […] Wild type and Tg-UGT^1c mice were treated every 24 hours with TCDD (16 μg/kg) or PCN (10 mg/kg) by intraperitoneal injection for 3 days, and the livers from three animals per group combined and used to prepare microsomes or to isolate total RNA.

[4] = system: human UGT1A1; details: for UGT1A1 protein induction: small and large intestinal microsomes, TCDD 16 μg/kg or PCN
Description: as §4, §5, §6, §7, §8

[5] = system: human UGT1A4; details: for UGT1A4 protein induction: small and large intestine
Description: as §4, §5, §6, §7, §8

[6] = system: UGT1A1
Procedure: as §5

[7] = system: mouse Cyp3a11; test: Cyp3a11 RT-PCR in primary hepatocytes from Tg-UGT1c mice; details: primary hepatocytes treated with PCN
[8] = system: UGT1A gene transcripts (human UGT1 locus); test: Isoform-specific RT-PCR of UGT1A gene transcripts in tissues of treated Tg-UGT1c mice; format: in vivo, mouse; details: for UGT1A1 RNA induction / UGT1A4 RNA / UGT1A6 RNA induction / UGT1A gene transcript induction: RT-PCR; for UGT1A gene transcript induction: small and large intestine, i.p. 3 days
Procedure: Analysis of UGT1 gene expression patterns by reverse transcription-PCR: For RNA isolation from transgenic and wild type (WT) mouse tissues, the tissues from three animals were combined as described in the methods that outline the preparation of microsomal proteins. After pulverizing in liquid nitrogen, approximately 100 mg of tissue was homogenized in 1 ml of TRIzol™ solution, and the RNA extracted following the manufacturer's instructions. For each reverse transcription reaction, 2 μg of total RNA was denatured by heating and cDNA synthesized in 20 μl using the Omniscript RT™ kit (Qiagen) according to the manufacturer's instructions. From this reaction, 2 μl of the cDNA reaction was employed in each PCR reaction. Each PCR reaction contained 0.2 μM of mouse β-actin primers, 0.4 μM of each of the UGT1A specific oligonucleotide primer pair (11;15;50), and 15 μl HOTSTART MASTERMIX™ (Qiagen) in a 30 μl reaction. For UGT1A1, UGT1A3, UGT1A4, UGT1A5, UGT1A6, UGT1A7, UGT1A9 and UGT1A10 the polymerase was activated at 95° C. for 15 minutes followed by 30 cycles of 95° C. for 30 sec, 63° C. for 30 sec, and 72° C. for 45 sec, and a final extension at 72° C. for seven minutes. For UGT1A8 PCR amplification, the polymerase was activated at 95° C. for 15 min followed by 30 cycles of 95° C. for 30 sec, 58° C. for 30 sec, and 72° C. for 45 sec, and a final extension at 72° C. for seven minutes. Analysis of expressed RNA included an antisense oligonucleotide specific for the common region that encoded exon 2, while all of the sense primers encoded a highly specific segment of each exon 1 sequence that allowed for the unique identification of each UGT1A RNA. PCR reactions were carried out in a PerkinElmer Life Sciences GENEAMP™ DNA thermocycler PCR system. Ten microliters of each PCR product was resolved on a 1.5% agarose gel containing 1 μg/ml ethidium bromide and photographed using Polaroid 665 positive/negative film (Polaroid, Cambridge, Mass.).
as §6, §7
as §8, with “RNA. FIG. 6A: Samples of liver microsomal protein (10 μg) was separated by SDS-polyacrylamide gel electrophoresis, and immunoblot analysis performed using UGT1A1-, UGT1A4 or UGT1A6-antibodies. FIG. 6B: Total liver RNA (4 μg) was used in reverse transcription reactions followed by PCR analysis using isozyme-specific oligonucleotides.” for “RNA.”

[9] = system: UGT1A gene transcripts (human UGT1 locus); test: as above; format: in vivo, mouse; details: liver and small intestine, UGT1+/- mice treated with TCDD
[10] = system: mouse Cyp1a1; test: Cyp1a1 Western blot in primary hepatocytes from Tg-UGT1c mice; format: cell-based
Description: Isolation and treatment of mouse transgenic primary hepatocytes. […] Mice were anesthetized by isoflurane inhalation.
Control hepatocyte cultures contained only DMSO (D).

[11] = Tg-UGT1c mice, i.p. every 24 h for 3 days
[12] = liver microsomes, Tg-UGT1c mice, i.p. every 24 h for 3 days

CC(=O)[C@H]1[C@H](C#N)C[C@H]2[C@@H]3CC=C4C[C@@H](O)CC[C@]4(C)[C@H]3CC[C@@]21C [PCN, Pregnenolone-16α-carbonitrile]
Induction of β-estradiol glucuronidation [1]: induced β-estradiol glucuronidation significantly
β-estradiol glucuronidation activity, induced level over induced level in WT mice ([1]; small intestine microsomes, PCN treated Tg-UGT1c mice vs PCN treated WT mice): ~10 fold
Induction of β-estradiol glucuronidation ([2]; large intestine microsomes): induced β-estradiol glucuronidation significantly
Induction of UGT activity (β-estradiol) ([2]; small intestine microsomes): induced a minimal amount of UGT activity
Microsomal UGT1A6 protein induction ([3]; mouse, in vivo, ip): induction
UGT1A6 protein regulation [3, 11]: predominantly regulated only in large intestine
Microsomal UGT1A1 protein induction ([4]; mouse, in vivo, ip): induction
UGT1A1 protein induction [4, 11]: inducible
Microsomal UGT1A4 protein induction ([5]; mouse, in vivo, ip): induction
UGT1A4 protein induction [5, 11]: inducible in small and large intestine
UGT1A1 induction, hepatocytes cultured in dexamethasone [6]: significant induction
Cyp3a11 mRNA induction [7]: induction
UGT1A1 RNA induction ([8]; liver, Tg-UGT1c mice): significant induction
UGT1A4 RNA ([8]; liver, Tg-UGT1c mice): increase
UGT1A6 RNA induction ([8]; liver, Tg-UGT1c mice): induced
Expression of UGT1A1, UGT1A3, UGT1A4, UGT1A6 and UGT1A9 gene transcripts ([8]; liver, Tg-UGT1c mice): induce expression of each of these genes
UGT1A gene transcript induction ([8]; Tg-UGT1c mice): induction of all of the UGT1A gene transcripts

Clc1cc2c(cc1Cl)Oc1cc(Cl)c(Cl)cc1O2 [TCDD, 2,3,7,8-Tetrachlorodibenzo-p-dioxin]
Induction of β-estradiol glucuronidation [1]: most significant induction
Expression of 1A1 and 1A6 [9]: elevated expression
Microsomal UGT1A6 protein induction [3, 12]: induction
UGT1A6 protein regulation [3, 11]: predominantly regulated only in large intestine
Microsomal UGT1A1 protein induction [4, 12]: induction
UGT1A1 protein induction [4, 11]: inducible
Microsomal UGT1A4 protein induction [5, 12]: induction
UGT1A4 protein induction [5, 11]: inducible in small and large intestine
Mouse Cyp1a1 induction ([10]; TCDD 72 hours): induction
Synergistic induction of Cyp1a1 in presence of glucocorticoids ([10]; TCDD with 0.1 μM dexamethasone): did not observe a synergistic induction
UGT1A1 induction in presence of dexamethasone over the levels obtained only with TCDD treatment ([6]; primary hepatocytes cultured in 0.1 μM dexamethasone and treated with TCDD): 10 fold and > 10 fold
UGT1A1 induction ([6]; primary hepatocytes, compound alone, TCDD 10 nM 72 hours, PCN 10 μM, dexamethasone 0.1 μM): induction
UGT1A1 RNA induction ([8]; liver, Tg-UGT1c mice): significant induction
UGT1A4 RNA ([8]; liver, Tg-UGT1c mice): increase
UGT1A6 RNA induction ([8]; liver, Tg-UGT1c mice): induced
Expression of UGT1A1, UGT1A3, UGT1A4, UGT1A6 and UGT1A9 gene transcripts ([8]; liver, Tg-UGT1c mice): induce expression of each of these genes
UGT1A10 induction ([8]; liver, Tg-UGT1c mice): induce; also recorded: significantly induced
Regulation of UGT1A5, UGT1A7 and UGT1A8 ([8]; liver, Tg-UGT1 mice): not regulated
UGT1A gene transcript induction ([8]; Tg-UGT1c mice): induction of all of the UGT1A gene transcripts
